These results are taken from patent US20100144865A1, “COMPOUND FEED FOR AQUACULTURE” (priority 2007, published 2010).

The test system of the data set is Atlantic salmon (Salmo salar L.) hepatocytes. The data set is classed as in vitro ADME. The method, then: The isolated hepatocytes were incubated with 35 nmol, 2.5 μCi of [1-^14C] 18:3 (n-3) as well as non radiolabeled 18:3 (n-3), final concentration 7 μM, in 5 ml of L 15 culture medium without FBS. The radio labeled FA was added to the medium as potassium salt bound to BSA. To each experimental flask (4 radiolabeled and 7 with non-radiolabeled 18:3 (n-3)), DMSO (7.4 μl/5 ml) with sesamin (final concentration 0.05 mM) was added and to each control flasks (4 radiolabeled and 7 with non-radiolabeled 18:3 (n-3)), only DMSO (7.4 μl/5 ml) was added, in another two flasks sesamin but no FA was added. The cells were incubated at 12° C. for 48 h. The radiolabeled experiment flasks with and without sesamin (4 each) were washed and harvested in PBS for further analysis of β-oxidation and radiolabeled lipid classes and radiolabeled cellular fatty acids. The cells in the two flasks with no FA substrate added were denaturated after the incubation and thereafter added radiolabeled substrate in order to be used as a negative control for the ASP measurements and HPLC analyses. In the non-labeled study, control and sesamin flask (4 each) were washed in PBS prior to isolation of mRNA according to the protocol RNeasy® Mini Kit for gene expression analysis and 3 flasks of each control and sesamin were washed and harvested in PSB for fatty acid and sesamin analysis.

As for `c1cc2c(cc1C1OCC3C(c4ccc5c(c4)OCO5)OCC13)OCO2` (stereo not drawn) [episesamin, 2,6-bis-(3,4-methylenedioxyphenyl)-trans-3,7-dioxabicyclo[3.3.0]octane], the “bioavailability in hepatocytes compared with sesamin” value was “higher”.
